In patent US5869514A, “Terpenoidic derivatives useful as antitumor agents” (Pharmacia & Upjohn S.p.A., priority 1995, dated 1999):

Key:
Calf brain tubulin = test: Tubulin assembly test (repolymerization in presence of CaCl2, turbidity at 340 nm); format: biochemical; settings: tubulin 1 mg/ml, 1 mM GTP, after 4 mM CaCl2
Description: (a) Tubulin Assembly Test
Calf brain tubulin was prepared by two cycles of assembly-disassembly (Shelanski M. L., Gaskin F. and Cantor C. R., Proc. Natl.Acad.Sci. U.S.A. 70, 765-768, 1973; and stored in liquid nitrogen in MAB (0.1M MES, 2.5 mM EGTA, 0.5 mM MgSO4, 0.1 mM EDTA, 0.1 mM DTT, pH 6.4).
All the experiments were carried out on protein stored for less than 4 weeks.
Before each experiment, tubulin was kept 30 min at 4° C. Assembly was monitored by the method of Gaskin et al. (Gaskin F., Cantor C. R. and Shelanski M. L., J.Molec.Biol. 89, 737-758, 1974).
The cuvette (1 cm path) containing tubulin (1 mg/ml) and 1 mM GTP was shifted to 37° C. and continuous turbidity measurements were made at 340 nm on a Perkin-Elmer 557 double wavelength, double beam spectrophotometer equipped with an automatic recorder and a thermostatically regulated sample chamber.
After 30 minutes, 4 mM CaCl2 was added and depolymerisation was measured for 10 minutes as decreased turbidity.
At regular intervals of 15 minutes scaled doses of the tested compounds were added and variations in the turbidity were monitored.
Data are expressed as percentage of repolymerization induced by the tested compounds.

[1] = system: L1210 murine leukemia cell line; test: Cell cultures and drug sensitivity assay (inhibition of cell growth, cell counting); format: cell-based; settings: Mus musculus; L1210 cells, 48 h treatment; read-out: ID50 (nM) L1210
Description: (§1) (b) Cell Cultures and Drug Sensitivity Assay
(§2) L1210 and L1210/DX (Doxorubicin resistant) murine leukemia cell lines were grown in vitro as a stationary suspension culture in RPMI 1640 medium (GIBCO, Grand island, N.Y.) supplemented with 10% fetal calf serum (Flow, Irwine, UK), 2 mM L-glutamine (Gibco Europe, Glasgow, UK), 10 μM β-mercaptoethanol, 100 Units/ml penicillin and 100 μg/ml streptomycin.
(§3) Exponentially growing cells were seeded (1×10^5 cell/ml) in 12-well/plates (Costar, Cambridge, Mass.) and various concentrations of tested compounds were added immediately after seeding.
(§4) The plates were incubated at 37° C. in a humidified, 5% CO2 atmosphere for 48 hr.
(§5) Inhibition of cell growth was evaluated by counting surviving cells in a ZBI Coulter Counter (Hialeah, Fla.). The 50% inhibitory concentration (IC50) was calculated on the derived concentration-response curve. For each tested compound concentration, duplicate cultures were used.

[2] = system: L1210/DX (Doxorubicin resistant) murine leukemia cell line; test: Cell cultures and drug sensitivity assay (inhibition of cell growth, cell counting), Doxorubicin resistant cells; format: cell-based; settings: for R.I: L1210/DX versus L1210, 48 h treatment; for IC50: Mus musculus, L1210/DX cells (Doxorubicin resistant), 48 h treatment, read-out: ID50 (nM) L1210/DX
Description: as §1, §2, §3, §4, §5

SMILES	tubulin assembly (%) (percentage of repolymerization induced by the tested compound) (Calf brain tubulin; dosage 3.9 μM)	tubulin assembly (%) (percentage of repolymerization induced by the tested compound) (Calf brain tubulin; dosage 39 μM)	IC50 [1] [nM]	R.I [2]	IC50 [2] [nM]	tubulin assembly (%) (percentage of repolymerization induced by the tested compound) (Calf brain tubulin; dosage 4 μM)	tubulin assembly (%) (percentage of repolymerization induced by the tested compound) (Calf brain tubulin; dosage 40 μM)
COC(=O)C1=CC2C(CC(OC(=O)C=Cc3cn(C)cn3)C3(C)C=CC1(O)O3)C(C)=CC(O)C2C(C)C (single isomer, unassigned; (-)) [Sarcodictyin C]	112	173	408 ± 21.3	14.2	5790 ± 183	–	–
COC(=O)C1=CC2C(CC(OC(=O)C=Cc3cn(C)cn3)C3(C)C=CC1(O)O3)C(C)=CCC2C(C)C (single isomer, unassigned; (-)) [Sarcodictyin A]	–	–	539 ± 97.7	1.4	754 ± 80.3	70	162
